Measured values reported in patent US20180333418A1, “USE OF PAN FGFR INHIBITORS AND METHOD OF IDENTIFYING PATIENTS WITH CANCER ELIGIBLE FOR TREATMENT WITH A PAN FGFR INHIBITOR” (BAYER PHARMA AKTIENGESELLSCHAFT, priority 2014, published 2018).

Key:
LU1901 lung tumor model = assay: LU1901 xenograft in vivo efficacy; set-up: species or system nu/nu mice; conditions: tumor weight reduction
Experimental: (§1) For all other tumors as listed in table 2 & 3 the experiments were carried out in an analogous way as described above.

[1] = tested on: HNXF908 head&neck tumor model; assay: HNXF908 xenograft in vivo efficacy; set-up: species or system nu/nu mice; conditions: tumor weight reduction
Experimental: as §1

[2] = tested on: FGFR mRNA-positive tumors of cancer patients; assay: Clinical trial NCT01976741, RECIST CT scan evaluation; assay type: in vivo; set-up: key to RECIST response after C2 / RECIST response after C5: Stable Disease (SD) according to RECIST; progressive disease (PD); conditions: 800 mg BID; for % tumor change after C2 / RECIST response after C2: C2 = 6 weeks; for % tumor change after C5 / RECIST response after C5: C5 = 15 weeks
[3] = tested on: MFM223 breast tumor model; assay: MFM223 xenograft in vivo efficacy; set-up: species or system nu/nu mice; conditions: tumor weight reduction
Experimental: as §1

[4] = tested on: OVXF1023 ovarian carcinoma; assay: OVXF1023 patient-derived xenograft study; assay type: in vivo, nu/nu mice
Description: Female, 5-7 weeks old immunocompromised nu/nu mice (18-24 g) from Janvier (France) were used for the patient-derived OVX1023 ovarian carcinoma study.
The animals were housed in individually ventilated cages ([…] Sealsafe™-IVC-System, […], Hohenpeissenberg, Germany) and were kept under a 14L:10D artificial light cycle. The animals were monitored twice daily. Depending on group size, either type III cages or type II long cages were used. Dust-free bedding consisting of aspen wood chips with approximate dimensions of 5×5×1 mm (ABEDD®—LAB & VET Service GmbH, Vienna, Austria, Product Code: LTE E-001) were used. Additional nesting material was routinely added. […]
All experiments were approved by the local authorities, and were conducted according to all applicable international, national and local laws and guidelines. […] Animals were routinely monitored twice daily on working days and daily on weekends and public holidays. […]
Tumor size was measured twice weekly in two dimensions using a caliper, and the volume was expressed in mm^3 using the formula: V=0.5a×b^2 where a and b are the long and short diameters of the tumor, respectively. […] T-C was calculated with T as the time (in days) required for the mean tumor size of the treatment group to reach a predetermined size (e.g. 1000 mm^3), and C was the time (in days) for the mean tumor size of the control group to reach the same size. […]

[5] = tested on: LXFA1584 lung tumor model; assay: LXFA1584 xenograft in vivo efficacy; set-up: species or system nu/nu mice; conditions: tumor weight reduction
Experimental: as §1

[6] = tested on: A2780 ovarian tumor model; assay: A2780 xenograft in vivo efficacy; set-up: species or system nu/nu mice; conditions: tumor weight reduction
Experimental: as §1

[7] = tested on: LXFL1121 lung tumor model; assay: LXFL1121 xenograft in vivo efficacy; set-up: species or system nu/nu mice; conditions: tumor weight reduction
Experimental: as §1

[8] = tested on: MFE280 endometrial tumor model; assay: MFE280 xenograft in vivo efficacy; set-up: species or system nu/nu mice; conditions: tumor weight reduction
Experimental: as §1

LU299 lung tumor model = assay: LU299 xenograft in vivo efficacy; set-up: species or system nu/nu mice; conditions: tumor weight reduction
Experimental: as §1

HepG2 liver tumor model = assay: HepG2 xenograft in vivo efficacy; set-up: species or system nu/nu mice; conditions: tumor weight reduction
Experimental: as §1

H1703 lung tumor model = assay: H1703 xenograft in vivo efficacy; set-up: species or system nu/nu mice; conditions: tumor weight reduction
Experimental: as §1

[9] = tested on: RT112 bladder tumor model; assay: RT112 xenograft in vivo efficacy; set-up: species or system nu/nu mice; conditions: tumor weight reduction
Experimental: as §1

LU0697 lung tumor model = assay: LU0697 xenograft in vivo efficacy; set-up: species or system nu/nu mice; conditions: tumor weight reduction
Experimental: as §1

H716 colon tumor model = assay: H716 xenograft in vivo efficacy; set-up: species or system nu/nu mice; conditions: tumor weight reduction
Experimental: as §1

H520 lung tumor model = assay: H520 xenograft in vivo efficacy; set-up: species or system nu/nu mice; conditions: tumor weight reduction
Experimental: as §1

H1581 lung tumor model = assay: H1581 xenograft in vivo efficacy; set-up: species or system nu/nu mice; conditions: tumor weight reduction
Experimental: as §1

With `COCc1c(-c2cc3cc(C)cc(OC)c3s2)c2c(N)ncnn2c1CN1CCNC(=O)C1` [compound of formula (I)] the in vivo efficacy (LU1901 lung tumor model) was “no (All models in which the tumor weight was reduced upon treatment with compounds of formula (I) by at least 50% were considered to be efficacious in vivo.)”, the in vivo efficacy [1] was “yes (All models in which the tumor weight was reduced upon treatment with compounds of formula (I) by at least 50% were considered to be efficacious in vivo.)” and the “% tumor change after C2” value ([2]; Pat 100010010, sqNSCLC) was 0%. The “RECIST response after C2” value ([2]; Pat 100010010, sqNSCLC) was “SD”, the “% tumor change after C5” value ([2]; Pat 100010010, sqNSCLC) was “+8%” and the “RECIST response after C5” value ([2]; Pat 100010010, sqNSCLC) was “SD”. The “% tumor change after C2” value ([2]; Pat 100010018, Mesothelioma) was “+14%”, the “RECIST response after C2” value ([2]; Pat 100010018, Mesothelioma) was “SD” and the “% tumor change after C2” value ([2]; Pat 100020012, sqNSCLC) was −10%. For the same molecule, the “RECIST response after C2” value ([2]; Pat 100020012, sqNSCLC) was “SD”, the “% tumor change after C2” value ([2]; Pat 560020029, sqNSCLC) was “+4%” and the “RECIST response after C2” value ([2]; Pat 560020029, sqNSCLC) was “SD”. For the same molecule, the “% tumor change after C5” value ([2]; Pat 560020029, sqNSCLC) was “+5%”, the “RECIST response after C5” value ([2]; Pat 560020029, sqNSCLC) was “SD” and the “% tumor change after C2” value ([2]; Pat 560020064, SCLC) was −2%. The “RECIST response after C2” value ([2]; Pat 560020064, SCLC) was “SD”, the “% tumor change after C2” value ([2]; Pat 580010012, sqNSCLC) was −10% and the “RECIST response after C2” value ([2]; Pat 580010012, sqNSCLC) was “SD”. The “% tumor change after C5” value ([2]; Pat 580010012, sqNSCLC) was −10%, the “RECIST response after C5” value ([2]; Pat 580010012, sqNSCLC) was “SD” and the “% tumor change after C2” value ([2]; Pat 580010016, sqNSCLC) was −5%. For the same molecule, the “RECIST response after C2” value ([2]; Pat 580010016, sqNSCLC) was “SD”, the “% tumor change after C5” value ([2]; Pat 580010016, sqNSCLC) was −6% and the “RECIST response after C5” value ([2]; Pat 580010016, sqNSCLC) was “SD”. For the same molecule, the “% tumor change after C2” value ([2]; Pat 580010022, Bladder) was −3%, the “RECIST response after C2” value ([2]; Pat 580010022, Bladder) was “SD” and the “% tumor change after C5” value ([2]; Pat 580010022, Bladder) was −2%. The “RECIST response after C5” value ([2]; Pat 580010022, Bladder) was “SD”, the “% tumor change after C2” value ([2]; Pat 580010038, Unknown primary) was “+26%” and the “RECIST response after C2” value ([2]; Pat 580010038, Unknown primary) was “PD”. The in vivo efficacy [3] was “yes (All models in which the tumor weight was reduced upon treatment with compounds of formula (I) by at least 50% were considered to be efficacious in vivo.)”, the “T/C at day 38 post treatment start” value ([4]; OVXF1023, 35 mg/kg 2QD 5 days on- 2 days off po, treated mean/vehicle mean tumor volume) was 0.2 and the in vivo efficacy ([4]; OVXF1023 ovarian model, tumor weight reduction) was “yes (All models in which the tumor weight was reduced upon treatment with compounds of formula (I) by at least 50% were considered to be efficacious in vivo.)”. For the same molecule, the in vivo efficacy [5] was “no (All models in which the tumor weight was reduced upon treatment with compounds of formula (I) by at least 50% were considered to be efficacious in vivo.)”, the in vivo efficacy [6] was “yes (All models in which the tumor weight was reduced upon treatment with compounds of formula (I) by at least 50% were considered to be efficacious in vivo.)” and the in vivo efficacy [7] was “yes (All models in which the tumor weight was reduced upon treatment with compounds of formula (I) by at least 50% were considered to be efficacious in vivo.)”. The in vivo efficacy [8] was “yes (All models in which the tumor weight was reduced upon treatment with compounds of formula (I) by at least 50% were considered to be efficacious in vivo.)”, the in vivo efficacy (LU299 lung tumor model) was “yes (All models in which the tumor weight was reduced upon treatment with compounds of formula (I) by at least 50% were considered to be efficacious in vivo.)” and the in vivo efficacy (HepG2 liver tumor model) was “no (All models in which the tumor weight was reduced upon treatment with compounds of formula (I) by at least 50% were considered to be efficacious in vivo.)”. For the same molecule, the in vivo efficacy (H1703 lung tumor model) was “no (All models in which the tumor weight was reduced upon treatment with compounds of formula (I) by at least 50% were considered to be efficacious in vivo.)”, the in vivo efficacy [9] was “yes (All models in which the tumor weight was reduced upon treatment with compounds of formula (I) by at least 50% were considered to be efficacious in vivo.)” and the in vivo efficacy (LU0697 lung tumor model) was “yes (All models in which the tumor weight was reduced upon treatment with compounds of formula (I) by at least 50% were considered to be efficacious in vivo.)”. The in vivo efficacy (H716 colon tumor model) was “yes (All models in which the tumor weight was reduced upon treatment with compounds of formula (I) by at least 50% were considered to be efficacious in vivo.)”, the in vivo efficacy (H520 lung tumor model) was “no (All models in which the tumor weight was reduced upon treatment with compounds of formula (I) by at least 50% were considered to be efficacious in vivo.)” and the in vivo efficacy (H1581 lung tumor model) was “yes (All models in which the tumor weight was reduced upon treatment with compounds of formula (I) by at least 50% were considered to be efficacious in vivo.)”.
